Assay results published in patent US20110118298A1, “COMPOSITIONS, KITS, AND METHODS FOR IDENTIFICATION, ASSESSMENT, PREVENTION, AND THERAPY OF CANCER” (INFINITY PHARMACEUTICALS, INC., priority 2009, published 2011).
Where a name gives a salt, the structure may show the parent alone.

What was measured:
[1] = tested on: mutant EGFR; assay: Time to client protein degradation by immunoblot, H1650 cells; format: cell-based, human; conditions: 1 uM IPI-504
Experimental: FIG. 7B is panel of immunoblot images showing the levels of ALK, phospho-ALK and cleaved-PARP in H3122 cells, HER2 in BT474 cells, and EGFR in H1650 cells at various time points after IPI-504 (1 uM) treatment. Proteins levels were monitored by immunoblotting.
Rearrangements at the ALK locus have been reported in about 5% of NSCLC patients, forming an oncogenic fusion of the N-terminus of EML4 with the C-terminal kinase domain of ALK (Soda, M. et al. (2007) Nature 448: 561-6). To determine whether the EML4-ALK fusion protein is a client protein of Hsp90, we incubated the EML4-ALK-expressing NSCLC cell line H3122 with increasing concentrations of IPI-504 and measured the abundance of total and phosphorylated ALK protein by ELISA (FIG. 7a). In this experiment, virtually all ALK protein is degraded at concentrations above 50 nM IPI-504. The degradation IC50 measured (4 nM) makes this the most sensitive Hsp90 client protein we have encountered. […] To further confirm that EML4-ALK is indeed a client of Hsp90, we performed immunoprecipitations with an antibody directed against Hsp90a, and detected a protein band at the predicted molecular weight ([…]) with an ALK antibody in Hsp90 immunoprecipitates from H3122 cells but not control cells (FIG. 7c, lane 1 and 3). […]

[2] = tested on: Colo201 (mutant BRAF) xenograft; assay: Colo201 xenograft, 17-AG, Irinotecan and combination; format: in vivo, nude mice
Experimental: In the sixth set of studies, subcutaneous xenografts of Colo201 (mutant BRAF) were established by implantation of 10×10^6 cells into the right flank of nude mice. Once tumors reached approximately 100-150 mm^3, animals were randomized into treatment groups and administered either vehicle or a suspension of 50% 17-AG in HPMC-AS-HG dispersion in vehicle (1% hydroxyethylcellulose, 5% glycerol) (100 mg/kg, M-W-F, 3 weeks), Irinotecan (100 mg/kg, Q7D, 3 weeks) or the combination of a suspension of 50% 17-AG in HPMC-AS-HG dispersion in vehicle (1% hydroxyethylcellulose, 5% glycerol) (50 mg/kg, M-W-F) and Irinotecan (75 mg/kg, Q7D) for three weeks, and tumor volume measured twice per week (FIG. 26A; FIG. 26B is a zoomed-in section of FIG. 26A). At the end of the dosing period, animals were monitored for an additional 57 days to follow tumor growth delay. […] Similar results to those described above for the Colo201 model were also observed in two separate colorectal models (HCT-116 and DuDu1, […]) (Experiments 7 and 8).

## C=CCNc1c(O)cc2c(O)c1C[C@@H](C)C[C@H](OC)[C@H](O)[C@@H](C)/C=C(\C)[C@H](OC(N)=O)[C@@H](OC)/C=C\C=C(/C)C(=O)N2 [IPI-504, retaspimycin hydrochloride]
[1]
  time for most of the mutEGFR to be degraded: about 24 h

## CO[C@H]1/C=C\C=C(/C)C(=O)NC2=CC(=O)C(N)=C(C[C@@H](C)C[C@H](OC)[C@H](O)[C@@H](C)/C=C(\C)[C@@H]1OC(N)=O)C2=O [IPI-493, 17-AG]
[2]; combination 50 + 75 mg/kg, single agents 100 mg/kg each
  complete responses (complete disappearance of a palpable tumor): no complete responses
[2]; single agent, 17-AG 100 mg/kg M-W-F or Irinotecan 100 mg/kg Q7D, 3 weeks
  TGI while on drug: ~88%
